How the values were obtained:
[1] = target: T1, human GABAA α5β3γ2s receptor (Homo sapiens, UniProt P18507+P31644); experiment: Assay A: in vitro inhibition of 3H-flumazenil binding, HEK cells expressing human GABAA α5β3γ2s receptor; settings: 3H-flumazenil 1 nM, HEK-293 membranes, 40 min at 2° C.; Ki from IC50 by Cheng and Prusoff
T1 sequence (P18507 1-475): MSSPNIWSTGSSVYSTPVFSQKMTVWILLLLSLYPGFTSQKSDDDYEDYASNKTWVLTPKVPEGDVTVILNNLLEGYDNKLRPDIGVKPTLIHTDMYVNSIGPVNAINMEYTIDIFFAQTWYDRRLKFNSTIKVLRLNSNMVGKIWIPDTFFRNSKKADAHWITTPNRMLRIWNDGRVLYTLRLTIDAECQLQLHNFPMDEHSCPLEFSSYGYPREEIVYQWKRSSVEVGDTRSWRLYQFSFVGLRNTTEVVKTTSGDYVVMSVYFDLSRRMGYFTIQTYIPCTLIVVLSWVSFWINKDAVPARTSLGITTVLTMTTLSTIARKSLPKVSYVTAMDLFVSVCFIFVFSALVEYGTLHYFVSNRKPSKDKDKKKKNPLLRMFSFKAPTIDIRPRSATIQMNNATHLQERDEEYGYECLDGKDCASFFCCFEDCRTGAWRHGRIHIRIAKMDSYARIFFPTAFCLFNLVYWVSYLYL
T1 sequence (P31644 1-462): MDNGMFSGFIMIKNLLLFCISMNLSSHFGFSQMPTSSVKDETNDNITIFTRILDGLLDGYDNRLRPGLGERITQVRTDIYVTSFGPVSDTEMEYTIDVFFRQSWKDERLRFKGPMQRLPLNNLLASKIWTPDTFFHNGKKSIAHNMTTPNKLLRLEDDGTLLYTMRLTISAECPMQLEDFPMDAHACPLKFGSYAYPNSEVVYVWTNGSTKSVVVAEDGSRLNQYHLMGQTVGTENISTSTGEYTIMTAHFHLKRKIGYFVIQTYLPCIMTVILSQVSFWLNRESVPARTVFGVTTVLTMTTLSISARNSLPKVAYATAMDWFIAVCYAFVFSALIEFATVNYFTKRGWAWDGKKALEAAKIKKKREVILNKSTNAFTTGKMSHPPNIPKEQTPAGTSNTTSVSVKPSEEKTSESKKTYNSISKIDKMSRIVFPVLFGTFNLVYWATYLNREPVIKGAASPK
Procedure: HEK-293 cell lines with stable expression of recombinant human GABAA α5β3γ2s receptors (plasmid H46/E9/B10) are seeded in T175 polystyrene flasks or roller bottles (1700 cm^2, Fisher Scientific CCI-431191), and cultured (37 C, 5% CO˜) in Dulbecco's Modified Eagle Medium (DMEM) with GlutaMAX™ supplemented with 10% fetal bovine serum and one or both of the following antibiotics: hygromycin B ([…]; γ2 subunit) or G418 (0.5 mg/ml; […]).
When the cultures reach confluency, the DMEM is removed and the cells are washed (10 ml for T175 flasks; 50 ml for roller bottles) once in Dulbecco's Phosphate Buffered Saline (DPBS). Following addition of DPBS to the cultures (10 ml for T175 flasks; 100 ml for roller bottles) for approximately 5 min cells are easily detached from the surface by shaking or tapping the flask gently. The cell suspension is transferred to Falcon tubes and centrifuged at 23,500×g for 10 min at 2° C. The pellet is washed once in 15 ml Tris-citrate buffer (50 mM, pH 7.1) using an Ultra-Turrax homogenizer and centrifuged at 2° C. for 10 min at 27,000×g. The washed pellet is re-suspended in 15 ml Tris-citrate buffer and frozen at −80° C. until the day of the binding experiment.
On the day of the experiment the cell membrane preparation is thawed and centrifuged at 2° C. for 10 min at 27,000×g. The pellet is re-suspended, using an Ultra-Turrax homogenizer in Tris-citrate buffer, to 15-50 µg protein per assay and then used for binding assays.
Non-specific binding is determined using clonazepam (1 μM, final concentration).
All dilutions of test compounds and incubation of assay are performed in glass vials/96-vial plates. […] Compounds are dissolved in 100% DMSO (10 mM stock), diluted in 48% ethanol-water, and tested in triplicate in serial 1:3 or 1:10 dilutions. When screening large numbers of compounds only one concentration of each compound is tested in single wells. Reference compounds are not included routinely, but for each experiment performed total and nonspecific binding is compared to data obtained during validation of the assay.
Binding is either terminated by rapid filtration onto
1) Whatman GF/C glass fibre filters using a Brandel Cell harvester, followed by 5 washes with 1 ml ice-cold buffer or onto 2) UniFilter GF/C glass fibre filter plates using a Tomtec cell harvester, followed by washing with approximately 5 ml ice-cold buffer.
The amount of radioactivity on the filters is determined by conventional liquid scintillation counting using a
1) Tri-Garb™ counter (PerkinElmer Life and Analytical Sciences) for separate large filters or
2) Topcount™ counter (PerkinElmer Life and Analytical Sciences) for 96-well filter plates. Specific binding is total binding minus non-specific binding.
For screening purposes n is set to 1. The IC50 value is calculated from the concentration response curves by the non-linear regression method using the curve-fitting program GraphPad Prism. […]

[2] = target: T2, α5β2γ2 GABAA receptor (Homo sapiens, UniProt P18507+P31644); experiment: Assay B: modulation of α5β2γ2 GABAA receptor, two-electrode voltage clamp in oocytes; assay type: cell-based; settings: for EC50: oocytes, TEVC, co-application with GABA 0.5 μM (EC5-20), read-out: Assay B: GABAA α5β3γ2 EC50
T2 sequence (P31644 32-462): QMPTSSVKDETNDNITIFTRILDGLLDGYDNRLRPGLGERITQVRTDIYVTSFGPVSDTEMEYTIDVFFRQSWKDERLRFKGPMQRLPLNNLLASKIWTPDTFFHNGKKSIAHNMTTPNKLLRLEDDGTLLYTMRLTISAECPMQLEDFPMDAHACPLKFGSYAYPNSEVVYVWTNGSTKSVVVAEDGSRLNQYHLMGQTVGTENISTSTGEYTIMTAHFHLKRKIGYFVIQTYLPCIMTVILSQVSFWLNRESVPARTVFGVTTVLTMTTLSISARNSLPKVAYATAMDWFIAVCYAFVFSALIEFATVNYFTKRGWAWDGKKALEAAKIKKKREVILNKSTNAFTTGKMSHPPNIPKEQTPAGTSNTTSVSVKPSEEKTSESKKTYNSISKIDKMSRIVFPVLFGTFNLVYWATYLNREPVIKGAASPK
T2 sequence (P18507 40-376 limits assumed): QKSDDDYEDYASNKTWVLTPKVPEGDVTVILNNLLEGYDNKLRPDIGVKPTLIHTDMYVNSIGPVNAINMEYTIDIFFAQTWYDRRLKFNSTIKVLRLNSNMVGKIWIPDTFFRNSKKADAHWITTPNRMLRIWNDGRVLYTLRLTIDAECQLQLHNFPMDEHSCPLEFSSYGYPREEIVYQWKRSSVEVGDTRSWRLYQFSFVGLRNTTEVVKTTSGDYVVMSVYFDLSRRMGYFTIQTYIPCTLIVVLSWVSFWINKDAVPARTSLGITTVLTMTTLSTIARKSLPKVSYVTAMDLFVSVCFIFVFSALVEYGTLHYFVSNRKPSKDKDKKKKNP
Procedure: Assay B: In vitro evaluation of modulation of α5β2γ2 GABAA receptor.
Modulatory efficacy of compounds of formula (I) is determined electrophysiological recordings in oocytes using the two-electrode voltage clamp (TEVC) technique. Oocytes are injected with cRNA for human GABAA receptor subunits α5, β2 and γ2 in a 3:1:3 ratio and modulatory efficacy is evaluated by co-applications with a submaximal EC5-20 GABA concentration (0.5 μM) termed GABA control. As a standard, the compounds are tested in five concentrations (3.16, 0.316, 0.0316, 0.00316 and 0.000316 μM) on each oocyte starting with the lowest concentration. Background subtracted peak current amplitudes are normalized to the respective GABA control current, converted to % change and depicted +/−S.E.M. as a function of increasing compound concentrations. Plotted datapoints are fitted to the empirical Hill equation using non-linear regression. 95% confidence intervals for maximal efficacy (Bottom) and potency (Log EC50) are derived from this fitting routine.

[3] = Metabolic stability in human liver microsomes (Human MST); assay type: in vitro ADME; settings: pooled human liver microsomes, pH 7.6; human liver microsomes 1 mg/mL, 1 μM compound, NADPH 1 mM, 37° C.; read-out: Human MST t1/2
Procedure: Assessment of Metabolic Stability in Human Liver Microsomes (Human MST) The metabolic stability of the compounds according to the invention may be investigated as follows: The metabolic degradation of the test compound is assayed at 37° C. with pooled human liver microsomes. The final incubation volume of 100 μL per time point contains TRIS buffer pH 7.6 at room temperature (0.1 M), MgCl2 (5 mM), microsomal protein (1 mg/mL) and the test compound at a final concentration of 1 μM. Following a short pre-incubation period at 37° C., the reactions are initiated by addition of beta-nicotinamide adenine dinucleotide phosphate, reduced form (NADPH, 1 mM), and terminated by transferring an aliquot into solvent after different time points. After centrifugation (10000 g, 5 min), an aliquot of the supernatant is assayed by LCMS/MS for the amount of parent compound. The half-life (t½) is determined by the slope of the semi-logarithmic plot of the concentration-time profile.

[4] = tested on: human MDR1 P-gp; experiment: Efflux in MDCK cells transfected with the human MDR1 gene (MDCK-PGP permeability); assay type: in vitro ADME, canine; settings: dog, pH 7.4, 37° C.; for efflux ratio: PEBA/PEAB; for Papp A→B: apical-to-basal apparent permeability (PEAB)
Procedure: Assessment of Efflux in Madin-Darby Canine Kidney (MDCK) Cells Transfected with the 30 Human MDR1 Gene to Assess Brain Penetration (Drug Metabolism and Disposition February 2008, 36 (2) 268-275; DOI: https://doi.org/10.1124/dmd.107.017434) Apparent permeability coefficients (PE) of the compounds across the MDCK-MDR1 cell monolayers are measured (pH 7.4, 37° C.) in apical-to-basal (AB) and basal-to-apical (BA) transport direction. AB permeability (PEAB) represents drug absorption from the blood into the 35 brain and BA permeability (PEBA) drug efflux from the brain back into the blood via both passive permeability as well as active transport mechanisms mediated by efflux and uptake transporters that are expressed on the MDCK-MDR1 cells, predominantly by the overexpressed human MDR1 P-gp. The compounds are assigned to permeability/absorption classes by comparison of the AB permeabilities with the AB permeabilities of reference compounds with known in vitro permeability and oral absorption in the human. Identical or similar permeabilities in both transport directions indicate passive permeation, vectorial permeability points to additional active transport mechanisms. Higher PEBA than PEAB indicates the involvement of active efflux mediated by MDR1 P-gp. Active transport is concentration-dependently saturable.
MDCK-MDR1 cells (1-2×10e5 cells/1 cm2 area) are seeded on filter inserts (Costar transwell polycarbonate or PET filters, 0.4 μm pore size) and cultured (DMEM) for 7 days. Subsequently, the MDR1 expression is boosted by culturing the cells with 5 mM sodium butyrate in full medium for 2 days. Compounds are dissolved in appropriate solvent (like DMSO, 1-20 mM stock solutions). Stock solutions are diluted with HTP-4 buffer (128.13 mM NaCl, 5.36 mM KCl, 1 mM MgSO4, 1.8 mM CaCl2, 4.17 mM NaHCO3, 1.19 mM Na2HPO4×7H2O, 0.41 mM NaH2PO4xH2O, 15 mM HEPES, 20 mM glucose, 0.25% BSA, pH 7.4) to prepare the transport solutions (0.1-300 μM compound, final DMSO <=0.5%). The transport solution (TL) is applied to the apical or basolateral donor side for measuring A-B or B-A permeability (3 filter replicates), respectively. The receiver side contains the same buffer as the donor side. Samples are collected at the start and end of experiment from the donor and at various time intervals for up to 2 hours also from the receiver side for concentration measurement by HPLC-MS/MS or scintillation counting. Sampled receiver volumes are replaced with fresh receiver solution.

| SMILES | Ki [1] [nM] | Assay B: GABAA α5β3γ2 Emax vs GABA [2] [%] | EC50 [2] [nM] | half-life at 1 μM [3] [h] | efflux ratio [4] | Papp A→B [4] [×10⁻⁶ cm/s] |
| --- | --- | --- | --- | --- | --- | --- |
| Cc1nnn(-c2ccc(C(F)F)cc2)c1COc1ccc(-n2nc(C#N)cc2C)nn1 [Example 34] | 0.035 | -4.3 | – | – | – | – |
| Cc1nnn(-c2ccc(C(F)F)cc2)c1COc1ccc(-n2cnc([S+](C)[O-])c2)nn1 (stereo not shown) [Example 23] | 0.27 | -12 | 2 | – | – | – |
| Cc1nnn(-c2ccc(C(F)F)cc2)c1COc1ccc(-n2cnc(C#N)c2)nn1 [Example 1, 1-[6-({1-[4-(difluoromethyl)phenyl]-4-methyl-1H-1,2,3-triazol-5-yl}methoxy)pyridazin-3-yl]-1H-imidazole-4-carbonitrile] | – | -23.3 | 1.5 | > 2.17 | 2.6 | 18.1 |
| Cc1nnn(-c2ccc(C(F)F)cc2)c1COc1ccc(-c2cnccn2)nn1 [Example 13] | – | -23 | 9 | > 2.17 | 0.5 | 69 |
| Cc1nnn(-c2ccc(C(F)F)cc2)c1COc1ccc(-n2cnc(C(=O)N(C)C)c2)nn1 [Example 16] | 0.16 | 0 | – | > 2.17 | – | – |
| Cc1nnn(-c2ccc(C(F)F)cc2)c1COc1ccc(-n2cncn2)nn1 [Example 28, 3-({1-[4-(difluoromethyl)phenyl]-4-methyl-1H-1,2,3-triazol-5-yl}methoxy)-6-(1H-1,2,4-triazol-1-yl)pyridazine] | – | -25 | 5.5 | > 2.17 | 0.6 | 68.7 |
| Cc1nnn(-c2ccc(C(F)F)cc2)c1COc1ccc(-c2ccn[nH]2)nn1 [Example 10] | – | -18 | 5.8 | > 2.17 | 1.7 | 22.4 |

— patent US10941137B2, “Difluoromethyl-phenyl triazoles” (Boehringer Ingelheim International GmbH, priority 2018, dated 2021)
